In patent publication US8877739B2, “Prophylactic agent or therapeutic agent for diabetes or obesity” (Ajinomoto Co., Inc., priority 2010, dated 2014):

Experiments:
Assay type in all cases: cell-based
[1] = system: Human cecum-derived cell line NCI-H716; experiment: CCK secretion promoting activity in NCI-H716 cells; settings: 37° C., 30 minutes
Method: Human cecum-derived cell line NCI-H716 (ATCC No. CCL-251) was cultured in DMEM/Ham's F-12 medium containing 10% FBS at 37° C. in the presence of 5% CO2. The NCI-H716 cells were plated on a poly-L-lysine-coated 24-well plate in 600,000 cells/well, followed by culturing for 2 days. Prior to the addition of a sample, the wells were washed with Hepes buffer (20 mM Hepes, 146 mM NaCl, 5 mM KCl, 1.5 mM CaCl2, 1 mM MgSO4, 5.5 mM D-glucose, 0.02% BSA, pH 7.4). Then, 300 μl of a solution of the sample in the same buffer, and incubation was performed at 37° C. for 30 minutes. Compounds No. 1 (20 mM) No. 7 (2 mM), No. 21 (2 mM), No. 22 (2 mM), No. 33 (0.1 mM) and No. 34 (1 mM) listed in TABLE 2 were used as the sample. For control, Hepes buffer was used. After the supernatant was collected, the cells were precipitated by centrifugation (5000×g, 1 minute). The supernatant was recovered and lyophilized in a Speed Vac Concentrator from Savant Instruments Inc., and 60 μl of water was added thereto for dissolution. The CCK concentration in the solution was determined using an Enzyme Immunoassay Kit (EK-069-04; PHOENIX PHARMACEUTICALS).
The amount of CCK secreted when the measurement value of control obtained using the buffer was made 1 was expressed as a relative value.

[2] = system: Human cecum-derived cell line NCI-H716; experiment: GLP-1 secretion promoting activity in NCI-H716 cells; settings: 37° C., 60 minutes
Method: Human cecum-derived cell line NCI-H716 (ATCC No. CCL-251) was cultured in 10% FBS-containing DMEM/Ham's F-12 medium at 37° C. in the presence of 5% CO2. The NCI-H716 cells were plated on a poly-D-lysine-coated 96-well plate in 100,000 cells/well, followed by culturing for 2 days. Prior to the addition of a sample, the wells were washed with Hepes buffer (20 mM Hepes, 146 mM NaCl, 5 mM KCl, 1.5 mM CaCl2, 1 mM MgSO4, 5.5 mM D-glucose, 0.2% BSA, pH 7.4). Then, 50 μl of a solution of the sample in the same buffer, and incubation was performed at 37° C. for 60 minutes. Compounds No. 1 (20 mM), No. 7 (20 mM), No. 21 (20 mM), No. 22 (20 mM), No. 33 (7.5 mM) and No. 34 (7.5 mM) listed in TABLE 1 were used as the sample. As for control, Hepes buffer was used. After the supernatant was collected, the cells were precipitated by centrifugation (5000×g, 1 minute) and the supernatant was recovered. The GLP-1 concentration in the supernatant was measured as follows by the method for GLP-1 quantification using the GLP-1 receptor gene expression cells.
Human GLP-1 receptor gene (SEQ ID NO: 1) was incorporated into pcDNA3.1 in a conventional manner (López de Maturana R, Willshaw A, Kuntzsch A, Rudolph R, Donnelly D. J. Biol. Chem. 2003 Mar. 21; 278 (12): 10195-200.) to construct human GLP-1 receptor gene expression plasmid hGLP-1R/pcDNA3.1. Also, the chimeric gene (SEQ ID NO: 2) of human Gα15 gene and human gustducin gene was incorporated into pcDNA3.1 to construct G-protein expression plasmid Gα15-gust/pcDNA3.1. Using a transfection reagent FuGene 6 (Roche Japan, Inc.), hGLP-1R/pcDNA3.1 and Gα15-gust44/pcDNA3.1 were cotransfected to HEK293E cells (ATCC No. CRL-10852). After incubation in a CO2 incubator for 4 to 6 hours, the cells were suspended in 5% FBS-containing DMEM/Ham F12 and plated onto a poly-D-lysine-coated 96-well plate in 70,000 cells/well. After incubation for 24 hours in a CO2 incubator, changes in fluorescence intensity were begun to monitor immediately after the addition of a sample, using a FlexStation (Molecular Devices) according to the Ca^2+ fluorescence indicator FLIPR Calcium 4 Assay Kit protocol (Molecular Devices). Concentration dependence in response to changes in fluorescence intensity of human GLP-1 (7-36 amide; Peptide Institute, Inc.) was determined and used as a standard curve for quantitative determination of the sample. The expression plasmid used here may be constructed by the methods described in, e.g., Proc. Natl. Acad. Sci. USA. 1992 Sep. 15; 89 (18): 8641-5, FEBS Letters Volume 373, Issue 29, October 1995, Pages 182-186), The Journal of Neuroscience, Aug. 13, 2003, 23 (19): 7376-7380), etc.
The amount of GLP-1 secreted when the measurement value of control obtained using the buffer was made 1 was expressed as a relative value.

[3] = target: T1, human CaSR (Homo sapiens, UniProt P41180); experiment: Evaluation of CaSR agonist activity (Ca2+ fluorescence, FLIPR, 293E cells transfected with hCaSR/pcDNA3.1)
T1 construct: expressed in transfected cells; host or cells: 293E cells (HEK293 cells expressing EBNA1, ATCC No. CRL-10852), transient transfection
T1 sequence (P41180 20-1078): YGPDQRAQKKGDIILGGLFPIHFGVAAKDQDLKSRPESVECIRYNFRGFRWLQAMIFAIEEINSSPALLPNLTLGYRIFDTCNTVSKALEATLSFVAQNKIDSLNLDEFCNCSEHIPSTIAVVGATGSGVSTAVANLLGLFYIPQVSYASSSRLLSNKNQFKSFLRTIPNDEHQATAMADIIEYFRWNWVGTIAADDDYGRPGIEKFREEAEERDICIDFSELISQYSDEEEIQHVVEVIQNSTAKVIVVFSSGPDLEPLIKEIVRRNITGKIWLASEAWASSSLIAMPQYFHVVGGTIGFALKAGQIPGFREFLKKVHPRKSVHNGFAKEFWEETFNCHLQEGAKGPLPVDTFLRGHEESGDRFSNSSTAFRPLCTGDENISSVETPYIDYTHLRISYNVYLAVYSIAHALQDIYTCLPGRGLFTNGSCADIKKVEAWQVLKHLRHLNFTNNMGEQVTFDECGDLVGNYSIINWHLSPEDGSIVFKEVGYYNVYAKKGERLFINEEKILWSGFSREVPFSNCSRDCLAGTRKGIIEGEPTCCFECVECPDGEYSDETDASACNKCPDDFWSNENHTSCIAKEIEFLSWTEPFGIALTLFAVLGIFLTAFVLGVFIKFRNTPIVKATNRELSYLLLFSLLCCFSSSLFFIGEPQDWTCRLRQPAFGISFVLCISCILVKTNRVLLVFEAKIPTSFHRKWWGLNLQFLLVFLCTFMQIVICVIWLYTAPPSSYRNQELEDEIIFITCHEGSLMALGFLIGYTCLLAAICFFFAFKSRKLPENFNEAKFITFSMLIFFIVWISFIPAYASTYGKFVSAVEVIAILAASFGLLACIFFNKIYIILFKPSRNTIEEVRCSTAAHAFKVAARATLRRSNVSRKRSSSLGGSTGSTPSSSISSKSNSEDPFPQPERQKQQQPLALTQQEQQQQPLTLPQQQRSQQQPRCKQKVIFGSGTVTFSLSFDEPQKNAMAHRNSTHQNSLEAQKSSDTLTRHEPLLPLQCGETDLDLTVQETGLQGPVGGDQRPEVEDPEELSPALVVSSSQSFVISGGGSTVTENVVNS
Method: The CaSR gene was prepared in accordance with the method described in Example 1 of WO 07/55393. Using the recombinant plasmid obtained, human CaSR expression plasmid hCaSR/pcDNA3.1 was prepared.
293E cells (HEK293 cells expressing EBNA1, ATCC No. CRL-10852) were cultured in DMEM (Dulbecco's Modified Eagle's Medium containing […], NACALAI TESQUE, INC.) containing 10% fetal calf serum, in the presence of 250 μg/ml of G418. The cells were spread on a Petri dish of 10 cm diameter in 1.8×10^6 cells/15 ml. After the cells were allowed to stand in a CO2 incubator (5% CO2, 37° C.) for 24 hours, human CaSR expression plasmid hCaSR/pcDNA3.1 was transfected with a transfection reagent Mirus TransIT 293 (Takara Bio Inc.). After the cells were allowed to stand in the CO2 incubator for 24 hours, the cells were collected by DMEM containing 10% fetal calf serum and plated on a poly-D-lysine coated 384 well plate (Falcon) in 15,000 cells/well. After the cells were allowed to stand in the CO2 incubator for 24 hours, the medium was removed. Then, 50 μL/well of Ca^2+ fluorescence indicator Calcium 4 Assay Kit (Molecular Devices) that was dissolved in an assay buffer (146 mM NaCl, 5 mM KCl, 1 mM MgSO4, 1 mg/ml glucose, 20 mM HEPES (pH 7.2) and 1.5 mM CaCl2) was added thereto, and allowed to stand at 37° C. for an hour and then at room temperature for 30 minutes to load the fluorescence indicator. The 384 well plate described above was transferred to FLIPR (Molecular Devices), and 12.5 μL/well of a compound that was dissolved in a 0.1% BSA containing-assay buffer was added thereto. Changes in fluorescence intensity were monitored for 3 minutes. Compound No. 20 was purchased from Bachem.

[4] = 293E cells expressing human CaSR, 1.5 mM CaCl2 assay buffer, Table 5
[5] = measured in a manner similar to Example III, Table 6

For Cc1c(Cl)cc(S(=O)(=O)O)cc1NC(=O)CC[C@H](N)C(=O)O [Compound 22, N^5-(3-chloro-2-methyl-5-sulfophenyl)-L-glutamine], which “Relative Value (amount of CCK secreted, buffer control = 1)” value ([1]; sample 2 mM) is on record?
Its value is 2.49.

What about the “Relative Value (amount of GLP-1 secreted, buffer control = 1)” value ([2]; sample 20 mM) of the same compound?
The value was 2.22.

With N[C@@H](COC(=O)N(O)c1cccc(S(=O)(=O)O)c1)C(=O)O [Compound 43, 0-{[hydroxy(3-sulfophenyl)amino]carbonyl}-L-serine] as the compound, how does the EC50 [3, 4] read?
The EC50 was 43 nM.

Which results are given for N[C@@H](CCC(=O)Nc1cccc(S(=O)(=O)O)c1)C(=O)O [Compound 1, N^5-(3-sulfophenyl)-L-glutamine]?
Relative Value (amount of CCK secreted, buffer control = 1) ([1]; sample 20 mM): 2.16; Relative Value (amount of GLP-1 secreted, buffer control = 1) ([2]; sample 20 mM): 1.82

N[C@@H](COC(=O)Nc1cc(Cl)cc(S(=O)(=O)O)c1O)C(=O)O [Compound 34] was tested. Which “Relative Value (amount of CCK secreted, buffer control = 1)” value ([1]; sample 1 mM) did it give?
The value was 1.77.

What about the “Relative Value (amount of GLP-1 secreted, buffer control = 1)” value ([2]; sample 7.5 mM) of the same compound?
Its value is 2.88.

Which “Relative Value (amount of CCK secreted, buffer control = 1)” value ([1]; sample 2 mM) does the source give for Cc1c(Cl)cc(NC(=O)CC[C@H](N)C(=O)O)cc1S(=O)(=O)O [Compound 21, N^5-(3-chloro-4-methyl-5-sulfophenyl)-L-glutamine] here?
The value was 4.54.

And the “Relative Value (amount of GLP-1 secreted, buffer control = 1)” value ([2]; sample 20 mM)?
Its value is 4.38.

Which results are given for Cc1c(Cl)cc(NC(=O)OC[C@H](N)C(=O)O)cc1S(=O)(=O)O [Compound 33, O-{[(3-chloro-4-methyl-5-sulfophenyl)amino]carbonyl}-L-serine]?
Relative Value (amount of CCK secreted, buffer control = 1) ([1]; sample 0.1 mM): 1.51; Relative Value (amount of GLP-1 secreted, buffer control = 1) ([2]; sample 7.5 mM): 1.87

CCOC(=O)[C@@H](N)CCC(=O)Nc1cc(Cl)cc(S(=O)(=O)O)c1O [Compound 50, 3-[(4S)-4-amino-5-ethoxy-5-oxopentanamido]-5-chloro-2-hydroxybenzene-1-sulfonic acid] was tested. Which EC50 [3, 5] did it give?
Its EC50 is 4 nM.

Which “Relative Value (amount of CCK secreted, buffer control = 1)” value ([1]; sample 2 mM) does the source give for N[C@@H](CCC(=O)Nc1cc(Cl)cc(S(=O)(=O)O)c1O)C(=O)O [Compound 7, N^5-(5-chloro-2-hydroxy-3-sulfophenyl)-L-glutamine] here?
The value was 1.99.

And the “Relative Value (amount of GLP-1 secreted, buffer control = 1)” value ([2]; sample 20 mM)?
Its value is 2.90.

N[C@@H](CCC(=O)N(O)c1cccc(S(=O)(=O)O)c1)C(=O)O [Compound 42, N^5-hydroxy-N^5-(3-sulfophenyl)-L-glutamine] was tested. Which EC50 [3, 4] did it give?
The EC50 was 31 nM.

For COC(=O)[C@@H](N)COC(=O)Nc1cc(Cl)c(C)c(S(=O)(=O)O)c1 [Compound 49, 5-({[(2S)-2-amino-3-methoxy-3-oxopropoxy]carbonyl}amino)-3-chloro-2-methylbenzene-1-sulfonic acid], which EC50 [3, 5] is on record?
The EC50 was 110 nM.

With COC(=O)[C@@H](N)CCC(=O)Nc1cccc(S(=O)(=O)O)c1 [Compound 44, 3-[(4S)-4-amino-5-methoxy-5-oxopentanamido]benzene-1-sulfonic acid] as the compound, how does the EC50 [3, 5] read?
The EC50 was 23 nM.
